Where two headings read alike, the source gives them in different places.
Columns and labels:
T790M resistance mutants = conditions: in vitro; cited from earlier work
[1] = test system: non-small-cell lung cancer patients with EGFR mutations; conditions: for TTP (months): first line treatment with erlotinib
Description: The term “clinical response”, as used herein, refers to the response of the subject suffering from NSCLC to a therapy with a tyrosine kinase inhibitor. Standard criteria (Miller, et al. Cancer, 1981; 47:207-14) that can be used herewith to evaluate the response to chemotherapy include response, stabilization and progression. It can be a complete response (or complete remission) which is the disappearance of all detectable malignant disease or a partial response which is defined as approximately >50% decrease in the sum of products of the largest perpendicular diameters of one or more lesions (tumor lesions), no new lesions and no progression of any lesion. Patients achieving complete or partial response were considered “responders”, and all other patients were considered “non-responders”.
The presence of the T790M mutation was examined in 129 patients for whom pretreatment tumor tissue was available.

[2] = 81 patients, BRCA1 4.92-10.7 N = 27
[3] = 81 patients, BRCA1 >10.7 N = 27
[4] = 81 patients, BRCA1 ≦4.92 N = 27
[5] = 129 patients, patients with the T790M mutation
[6] = 129 patients, patients without the T790M mutation
[7] = patients with the T790M mutation, BRCA1 4.92-11.79
[8] = patients with the T790M mutation, BRCA1 >11.79
[9] = patients with the T790M mutation, BRCA1 ≦4.92
[10] = patients without the T790M mutation, BRCA1 4.92-11.79
[11] = patients without the T790M mutation, BRCA1 >11.79
[12] = patients without the T790M mutation, BRCA1 ≦4.92

CC#CC(=O)Nc1ccc2ncnc(Nc3cccc(Br)c3)c2c1 [CL-387,785]
inhibition of growth of the T790M resistance mutants (T790M resistance mutants): inhibit the growth of the T790M resistance mutants

C#Cc1cccc(Nc2ncnc3cc(OCCOC)c(OCCOC)cc23)c1 [erlotinib, [6,7-bis(2-methoxyethoxy)-4-quinazolin-4-yl]-(3-ethynylphenyl)amine]
median progression-free survival ([1]; 28 patients harboring the T790M mutation, high BRCA1 levels): 8 months | median progression-free survival ([1]; 28 patients harboring the T790M mutation, intermediate BRCA1 levels): 4 months | median progression-free survival ([1]; 28 patients harboring the T790M mutation, low BRCA1 levels): 19 months | progression-free survival ([1]; 34 patients receiving erlotinib as first-line treatment (so in the source), high BRCA1 levels): 9 months | progression-free survival ([1]; 34 patients receiving erlotinib as first-line treatment (so in the source), intermediate BRCA1 levels): 24 months | progression-free survival ([1]; 34 patients receiving erlotinib as first-line treatment (so in the source), low BRCA1 levels): not reached | progression-free survival ([1]; 47 patients receiving erlotinib as first-line treatment, high BRCA1 levels): 16 months | progression-free survival ([1]; 47 patients receiving erlotinib as first-line treatment, intermediate BRCA1 levels): 9 months | progression-free survival ([1]; 47 patients receiving erlotinib as first-line treatment, low BRCA1 levels): 27 months | median progression-free survival ([1]; 53 patients without the T790M mutation, high BRCA1 levels): 12 months | median progression-free survival ([1]; 53 patients without the T790M mutation, intermediate BRCA1 levels): not reached | median progression-free survival ([1]; 53 patients without the T790M mutation, low BRCA1 levels): 27 months | progression-free survival ([1]; 64 patients receiving erlotinib as second-line treatment, with the T790M mutation): 13 months | progression-free survival ([1]; 64 patients receiving erlotinib as second-line treatment, without the T790M mutation): 18 months | progression-free survival ([1]; 65 patients receiving erlotinib as first-line treatment, with the T790M mutation): 8 months | progression-free survival ([1]; 65 patients receiving erlotinib as first-line treatment, without the T790M mutation): 18 months | Complete or partial response, (%) [1, 2]: (72) % | Complete response, (%) [1, 2]: (16) % | Partial response, (%) [1, 2]: (56) % | Progressive disease, (%) [1, 2]: (12) % | Stable disease, (%) [1, 2]: (16) % | Complete or partial response, (%) [1, 3]: (68.2) % | Complete response, (%) [1, 3]: (9.1) % | Partial response, (%) [1, 3]: (59.1) % | Progressive disease, (%) [1, 3]: (9.1) % | Stable disease, (%) [1, 3]: (22.7) % | Complete or partial response, (%) [1, 4]: (76) % | Complete response, (%) [1, 4]: (20) % | Partial response, (%) [1, 4]: (56) % | Progressive disease, (%) [1, 4]: (8) % | Stable disease, (%) [1, 4]: (16) % | Median progression-free survival to erlotinib ([1]; 81 patients, high BRCA1 levels): 10 months | Median progression-free survival to erlotinib ([1]; 81 patients, intermediate BRCA1 levels): 18 months | Overall survival ([1]; 81 patients, intermediate or high BRCA1 levels): not reached | Median progression-free survival to erlotinib ([1]; 81 patients, low BRCA1 levels): 27 months | Overall survival ([1]; 81 patients, low BRCA1 levels): 33 months | Overall survival [1, 5]: 27 months | median progression-free survival [1, 5]: 12 months | Overall survival [1, 6]: 29 months | median progression-free survival [1, 6]: 18 months | Complete or partial response, (%) ([1]; All patients N = 129): (68.9) % | Complete response, (%) ([1]; All patients N = 129): (10.3) % | Partial response, (%) ([1]; All patients N = 129): (58.6) % | Progressive disease, (%) ([1]; All patients N = 129): (12.9) % | Stable disease, (%) ([1]; All patients N = 129): (18.1) % | Complete or partial response, (%) ([1]; T790M-negative N = 84): (72.3) % | Complete response, (%) ([1]; T790M-negative N = 84): (13.9) % | Partial response, (%) ([1]; T790M-negative N = 84): (58.3) % | Progressive disease, (%) ([1]; T790M-negative N = 84): (11.1) % | Stable disease, (%) ([1]; T790M-negative N = 84): (16.7) % | Complete or partial response, (%) ([1]; T790M-positive N = 45): (63.6) % | Complete response, (%) ([1]; T790M-positive N = 45): (4.5) % | Partial response, (%) ([1]; T790M-positive N = 45): (59.1) % | Progressive disease, (%) ([1]; T790M-positive N = 45): (15.9) % | Stable disease, (%) ([1]; T790M-positive N = 45): (20.5) % | TTP (months) ([1]; T790M mutation No, BRCA1 levels High/Intermediate): 18 months | TTP (months) ([1]; T790M mutation No, BRCA1 levels Low): 27 months | TTP (months) ([1]; T790M mutation Yes, BRCA1 levels High/Intermediate): 3 months | TTP (months) ([1]; T790M mutation Yes, BRCA1 levels Low): 27 months | Complete or partial response, number of patients [1, 7]: 5 | Complete or partial response, share in parentheses [1, 7]: (55.6) | Complete response, number of patients [1, 7]: 0 | Complete response, share in parentheses [1, 7]: (0) | Partial response, number of patients [1, 7]: 5 | Partial response, share in parentheses [1, 7]: (55.6) | Progressive disease, number of patients [1, 7]: 2 | Progressive disease, share in parentheses [1, 7]: (22.2) | Stable disease, number of patients [1, 7]: 2 | Stable disease, share in parentheses [1, 7]: (22.2) | Complete or partial response, number of patients [1, 8]: 7 | Complete or partial response, share in parentheses [1, 8]: (77.8) | Complete response, number of patients [1, 8]: 1 | Complete response, share in parentheses [1, 8]: (11.1) | Partial response, number of patients [1, 8]: 6 | Partial response, share in parentheses [1, 8]: (66.7) | Progressive disease, number of patients [1, 8]: 1 | Progressive disease, share in parentheses [1, 8]: (11.1) | Stable disease, number of patients [1, 8]: 1 | Stable disease, share in parentheses [1, 8]: (11.1) | Complete or partial response, number of patients [1, 9]: 7 | Complete or partial response, share in parentheses [1, 9]: (70) | Complete response, number of patients [1, 9]: 1 | Complete response, share in parentheses [1, 9]: (10) | Partial response, number of patients [1, 9]: 6 | Partial response, share in parentheses [1, 9]: (60) | Progressive disease, number of patients [1, 9]: 1 | Progressive disease, share in parentheses [1, 9]: (10) | Stable disease, number of patients [1, 9]: 2 | Stable disease, share in parentheses [1, 9]: (20) | Complete or partial response, number of patients [1, 10]: 13 | Complete or partial response, share in parentheses [1, 10]: (76.5) | Complete response, number of patients [1, 10]: 4 | Complete response, share in parentheses [1, 10]: (23.5) | Partial response, number of patients [1, 10]: 9 | Partial response, share in parentheses [1, 10]: (52.9) | Progressive disease, number of patients [1, 10]: 1 | Progressive disease, share in parentheses [1, 10]: (5.9) | Stable disease, share in parentheses [1, 10]: (17.6) | Complete or partial response, number of patients [1, 11]: 7 | Complete or partial response, share in parentheses [1, 11]: (63.6) | Complete response, number of patients [1, 11]: 1 | Complete response, share in parentheses [1, 11]: (9.1) | Partial response, number of patients [1, 11]: 6 | Partial response, share in parentheses [1, 11]: (54.5) | Progressive disease, number of patients [1, 11]: 1 | Progressive disease, share in parentheses [1, 11]: (9.1) | Stable disease, share in parentheses [1, 11]: (27.3) | Complete or partial response, number of patients [1, 12]: 13 | Complete or partial response, share in parentheses [1, 12]: (81.3) | Complete response, number of patients [1, 12]: 4 | Complete response, share in parentheses [1, 12]: (25) | Partial response, number of patients [1, 12]: 9 | Partial response, share in parentheses [1, 12]: (56.3) | Progressive disease, number of patients [1, 12]: 1 | Progressive disease, share in parentheses [1, 12]: (6.3) | Stable disease, number of patients [1, 12]: 2 | Stable disease, share in parentheses [1, 12]: (12.5) | progression-free survival ([1]; subgroup of 48 patients with L858R, with the T790M mutation): 16 months | progression-free survival ([1]; subgroup of 48 patients with L858R, without the T790M mutation): 15 months | progression-free survival ([1]; subgroup of 81 patients with del 19, with the T790M mutation): 12 months | progression-free survival ([1]; subgroup of 81 patients with del 19, without the T790M mutation): 20 months
